Measured values: BindingDB's records for doi:10.1124/jpet.105.097006 (Acadia Pharmaceuticals, 2006)

Key:
[1] = biological target: T1, 5-hydroxytryptamine receptor 2C (Homo sapiens, UniProt P28335); assay: Radioligand Binding Assay; settings: 4 °C
T1 sequence (P28335 whole entry): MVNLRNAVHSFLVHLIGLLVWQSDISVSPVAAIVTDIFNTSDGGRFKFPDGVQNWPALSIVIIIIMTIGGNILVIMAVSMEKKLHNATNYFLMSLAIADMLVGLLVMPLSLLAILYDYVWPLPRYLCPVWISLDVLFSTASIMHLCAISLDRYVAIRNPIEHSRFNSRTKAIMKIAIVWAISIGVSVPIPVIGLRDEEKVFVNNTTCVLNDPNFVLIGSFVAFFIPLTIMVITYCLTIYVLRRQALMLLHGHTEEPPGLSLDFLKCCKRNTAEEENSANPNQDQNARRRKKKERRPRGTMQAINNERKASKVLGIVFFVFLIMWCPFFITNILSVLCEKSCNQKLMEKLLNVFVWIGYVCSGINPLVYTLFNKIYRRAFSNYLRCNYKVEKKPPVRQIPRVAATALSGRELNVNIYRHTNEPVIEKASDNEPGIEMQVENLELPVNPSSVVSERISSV
Experimental: (§1) For the membrane binding, NIH-3T3 cells were grown to 70% confluence in 15-cm2 dishes and transfected with 10 ug of receptor plasmid DNA using Polyfect transfection reagent (QIAGEN, Valencia, CA) according to manufacturer s protocols. Two days after transfection, cells expressing the desired serotonin receptor were homogenized in 20 mM HEPES/10 mM EDTA and spun down at 11,000g at 4 C for 30 min. The supernatant was discarded, and the pellet was resuspended in 20 mM HEPES/1 mM EDTA and spun down at the same setting. The pellet was then resuspended in 20 mM HEPES/0.5 mM EDTA, and membranes were used for binding assays. Bradford analysis was used to determine total membrane protein.

[2] = biological target: 5-hydroxytryptamine receptor 2B (Homo sapiens, UniProt P41595); assay: Receptor Selection and Amplification Technology
5-hydroxytryptamine receptor 2B, sequence (P41595 whole entry): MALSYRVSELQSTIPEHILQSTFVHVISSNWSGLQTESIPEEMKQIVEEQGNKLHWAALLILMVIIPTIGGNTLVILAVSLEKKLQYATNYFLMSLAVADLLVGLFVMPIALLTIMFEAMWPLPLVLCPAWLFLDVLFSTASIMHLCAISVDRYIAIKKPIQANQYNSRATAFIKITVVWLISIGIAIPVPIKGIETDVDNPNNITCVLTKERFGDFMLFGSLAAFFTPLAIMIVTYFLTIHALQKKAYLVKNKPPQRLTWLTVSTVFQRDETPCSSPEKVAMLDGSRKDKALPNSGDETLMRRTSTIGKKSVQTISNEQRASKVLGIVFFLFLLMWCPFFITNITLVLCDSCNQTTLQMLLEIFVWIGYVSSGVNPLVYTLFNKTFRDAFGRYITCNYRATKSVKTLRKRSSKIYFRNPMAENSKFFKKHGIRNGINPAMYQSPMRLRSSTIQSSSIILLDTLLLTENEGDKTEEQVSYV

[3] = biological target: T1, 5-hydroxytryptamine receptor 2C; assay: Receptor Selection and Amplification Technology
[4] = biological target: T2, 5-hydroxytryptamine receptor 2A (Homo sapiens, UniProt P28223); assay: Radioligand Binding Assay; settings: 4 °C
T2 sequence (P28223 whole entry): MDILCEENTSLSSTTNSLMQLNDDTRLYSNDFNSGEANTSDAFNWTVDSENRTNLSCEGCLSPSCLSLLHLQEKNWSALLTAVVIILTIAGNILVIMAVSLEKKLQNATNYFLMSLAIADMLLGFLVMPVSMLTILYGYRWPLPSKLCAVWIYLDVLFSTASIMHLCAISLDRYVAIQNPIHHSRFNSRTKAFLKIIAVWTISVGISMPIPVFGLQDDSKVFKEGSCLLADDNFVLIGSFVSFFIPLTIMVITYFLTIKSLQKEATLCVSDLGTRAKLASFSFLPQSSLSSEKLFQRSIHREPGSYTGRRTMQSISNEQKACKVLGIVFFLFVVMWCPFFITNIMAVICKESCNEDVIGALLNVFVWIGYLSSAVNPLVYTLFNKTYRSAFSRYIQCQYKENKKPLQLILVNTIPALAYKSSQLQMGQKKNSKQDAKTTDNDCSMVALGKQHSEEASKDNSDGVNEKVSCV
Experimental: as §1

[5] = biological target: T2, 5-hydroxytryptamine receptor 2A; assay: Receptor Selection and Amplification Technology

| Ki [4] | IC50 [5] | SMILES | Ki [1] | IC50 [2] | IC50 [3] |
| --- | --- | --- | --- | --- | --- |
|  |  | Cc1nc2sccn2c(=O)c1CCN1CCC(=C(c2ccc(F)cc2)c2ccc(F)cc2)CC1 | 0.44 nM | 3 nM | 4.5 nM |
| 0.046 nM | 1 nM | CN(C)CCON/C(=C/C=C1C=CC(=O)C=C1)c1ccccc1F [eplivanserin] | 1.3 nM |  |  |
